Measured values published in PubChem BioAssay AID2060342 (Molecular Pharmacology Branch, DTP, NCI, 2025).
pIC50: −log10 of the molar value.

Test system: 171881-019-R-J1-PDC multicell spheroid viability
Test: Anticancer human tumor 171881-019-R-J1-PDC patient-derived invasive breast carcinoma cell line growth inhibition [IpAb]
Details: for pIC50: curve of first compound; for viability, T/C: stronger effect = lower value
Outline: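 Combinations with ipatasertib or abemaciclib were tested on tumour spheroids holding HUVEC (25%) and MSC (15%) alongside 60% malignant cells. Top concentration was at or near clinical Cmax (10 microM if undefined), descending in half-log steps.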

[1] = second compound 0.01 µM, first compound 0.0316 µM
[2] = second compound 0.01 µM, first compound 0.1 µM
[3] = second compound 0.01 µM, first compound 0.316 µM
[4] = second compound 0.01 µM, first compound 1 µM
[5] = second compound 0.01 µM, first compound 3.16 µM
[6] = second compound 0.01 µM, first compound 10 µM
[7] = second compound 0.0316 µM, first compound 0.0316 µM
[8] = second compound 0.0316 µM, first compound 0.1 µM
[9] = second compound 0.0316 µM, first compound 0.316 µM
[10] = second compound 0.0316 µM, first compound 1 µM
[11] = second compound 0.0316 µM, first compound 3.16 µM
[12] = second compound 0.0316 µM, first compound 10 µM
[13] = second compound 0.1 µM, first compound 0.0316 µM
[14] = second compound 0.1 µM, first compound 0.1 µM
[15] = second compound 0.1 µM, first compound 0.316 µM
[16] = second compound 0.1 µM, first compound 1 µM
[17] = second compound 0.1 µM, first compound 3.16 µM
[18] = second compound 0.1 µM, first compound 10 µM
[19] = second compound 0.316 µM, first compound 0.0316 µM
[20] = second compound 0.316 µM, first compound 0.1 µM
[21] = second compound 0.316 µM, first compound 0.316 µM
[22] = second compound 0.316 µM, first compound 1 µM
[23] = second compound 0.316 µM, first compound 3.16 µM
[24] = second compound 0.316 µM, first compound 10 µM
[25] = second compound 1 µM, first compound 0.0316 µM
[26] = second compound 1 µM, first compound 0.1 µM
[27] = second compound 1 µM, first compound 0.316 µM
[28] = second compound 1 µM, first compound 1 µM
[29] = second compound 1 µM, first compound 3.16 µM
[30] = second compound 1 µM, first compound 10 µM
[31] = second compound 0.01 µM, first compound 0.00949 µM
[32] = second compound 0.01 µM, first compound 0.03 µM
[33] = second compound 0.01 µM, first compound 0.0949 µM
[34] = second compound 0.01 µM, first compound 0.3 µM
[35] = second compound 0.0316 µM, first compound 0.00949 µM
[36] = second compound 0.0316 µM, first compound 0.03 µM
[37] = second compound 0.0316 µM, first compound 0.0949 µM
[38] = second compound 0.0316 µM, first compound 0.3 µM
[39] = second compound 0.1 µM, first compound 0.00949 µM
[40] = second compound 0.1 µM, first compound 0.03 µM
[41] = second compound 0.1 µM, first compound 0.0949 µM
[42] = second compound 0.1 µM, first compound 0.3 µM
[43] = second compound 0.316 µM, first compound 0.00949 µM
[44] = second compound 0.316 µM, first compound 0.03 µM
[45] = second compound 0.316 µM, first compound 0.0949 µM
[46] = second compound 0.316 µM, first compound 0.3 µM
[47] = second compound 1 µM, first compound 0.00949 µM
[48] = second compound 1 µM, first compound 0.03 µM
[49] = second compound 1 µM, first compound 0.0949 µM
[50] = second compound 1 µM, first compound 0.3 µM
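Also: spheroids exposed to the agents for seven days before readout.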

Structure (SMILES): C=CC(=O)N1CCN(c2nc(=O)n(-c3c(C)ccnc3C(C)C)c3nc(-c4c(O)cccc4F)c(F)cc23)C(C)C1 (stereo not given) + CCN1CCN(Cc2ccc(Nc3ncc(F)c(-c4cc(F)c5nc(C)n(C(C)C)c5c4)n3)nc2)CC1
- pIC50 (second compound 0.01 µM): 5.08
- pIC50 (second compound 0.0316 µM): 5.02
- pIC50 (second compound 0.1 µM): < 5.00
- pIC50 (second compound 0.316 µM): < 5.00
- pIC50 (second compound 1 µM): < 5.00
- viability, T/C [1]: 103%
- viability, T/C [2]: 90.1%
- viability, T/C [3]: 89.5%
- viability, T/C [4]: 94.8%
- viability, T/C [5]: 97.5%
- viability, T/C [6]: 41.6%
- viability, T/C [7]: 99.1%
- viability, T/C [8]: 94.1%
- viability, T/C [9]: 104%
- viability, T/C [10]: 90.6%
- viability, T/C [11]: 91.5%
- viability, T/C [12]: 47.7%
- viability, T/C [13]: 117%
- viability, T/C [14]: 128%
- viability, T/C [15]: 114%
- viability, T/C [16]: 108%
- viability, T/C [17]: 105%
- viability, T/C [18]: 49.7%
- viability, T/C [19]: 136%
- viability, T/C [20]: 132%
- viability, T/C [21]: 132%
- viability, T/C [22]: 131%
- viability, T/C [23]: 114%
- viability, T/C [24]: 59.7%
- viability, T/C [25]: 148%
- viability, T/C [26]: 148%
- viability, T/C [27]: 149%
- viability, T/C [28]: 143%
- viability, T/C [29]: 127%
- viability, T/C [30]: 76.6%

Structure (SMILES): CC(=O)c1c(C)c2cnc(Nc3ccc(N4CCNCC4)cn3)nc2n(C2CCCC2)c1=O + CCN1CCN(Cc2ccc(Nc3ncc(F)c(-c4cc(F)c5nc(C)n(C(C)C)c5c4)n3)nc2)CC1
- pIC50 (second compound 0.01 µM): < 6.52
- pIC50 (second compound 0.0316 µM): < 6.52
- pIC50 (second compound 0.1 µM): < 6.52
- pIC50 (second compound 0.316 µM): < 6.52
- pIC50 (second compound 1 µM): < 6.52
- viability, T/C (second compound 0.01 µM, first compound 0.000949 µM): 98%
- viability, T/C (second compound 0.01 µM, first compound 0.003 µM): 90.7%
- viability, T/C [31]: 77%
- viability, T/C [32]: 94.4%
- viability, T/C [33]: 105%
- viability, T/C [34]: 107%
- viability, T/C (second compound 0.0316 µM, first compound 0.000949 µM): 107%
- viability, T/C (second compound 0.0316 µM, first compound 0.003 µM): 96.6%
- viability, T/C [35]: 103%
- viability, T/C [36]: 110%
- viability, T/C [37]: 107%
- viability, T/C [38]: 109%
- viability, T/C (second compound 0.1 µM, first compound 0.000949 µM): 119%
- viability, T/C (second compound 0.1 µM, first compound 0.003 µM): 109%
- viability, T/C [39]: 115%
- viability, T/C [40]: 117%
- viability, T/C [41]: 115%
- viability, T/C [42]: 112%
- viability, T/C (second compound 0.316 µM, first compound 0.000949 µM): 120%
- viability, T/C (second compound 0.316 µM, first compound 0.003 µM): 136%
- viability, T/C [43]: 127%
- viability, T/C [44]: 122%
- viability, T/C [45]: 123%
- viability, T/C [46]: 122%
- viability, T/C (second compound 1 µM, first compound 0.000949 µM): 144%
- viability, T/C (second compound 1 µM, first compound 0.003 µM): 143%
- viability, T/C [47]: 142%
- viability, T/C [48]: 142%
- viability, T/C [49]: 140%
- viability, T/C [50]: 132%

Structure (SMILES): CC(C)(C)c1cnc(CSc2cnc(NC(=O)C3CCNCC3)s2)o1 + CCN1CCN(Cc2ccc(Nc3ncc(F)c(-c4cc(F)c5nc(C)n(C(C)C)c5c4)n3)nc2)CC1
- pIC50 (second compound 0.01 µM): 6.76
- pIC50 (second compound 0.0316 µM): 6.74
- pIC50 (second compound 0.1 µM): 6.72
- pIC50 (second compound 0.316 µM): 6.71
- pIC50 (second compound 1 µM): 6.73
- viability, T/C [31]: 104%
- viability, T/C [32]: 93.6%
- viability, T/C [33]: 114%
- viability, T/C [34]: 5.39%
- viability, T/C (second compound 0.01 µM, first compound 0.949 µM): 0.26%
- viability, T/C (second compound 0.01 µM, first compound 3 µM): 0.29%
- viability, T/C [35]: 110%
- viability, T/C [36]: 99.8%
- viability, T/C [37]: 121%
- viability, T/C [38]: 3.9%
- viability, T/C (second compound 0.0316 µM, first compound 0.949 µM): 0.25%
- viability, T/C (second compound 0.0316 µM, first compound 3 µM): 0.36%
- viability, T/C [39]: 116%
- viability, T/C [40]: 125%
- viability, T/C [41]: 138%
- viability, T/C [42]: 0.81%
- viability, T/C (second compound 0.1 µM, first compound 0.949 µM): 0.47%
- viability, T/C (second compound 0.1 µM, first compound 3 µM): 0.46%
- viability, T/C [43]: 132%
- viability, T/C [44]: 126%
- viability, T/C [45]: 141%
- viability, T/C [46]: 1.4%
- viability, T/C (second compound 0.316 µM, first compound 0.949 µM): 0.27%
- viability, T/C (second compound 0.316 µM, first compound 3 µM): 0.57%
- viability, T/C [47]: 148%
- viability, T/C [48]: 143%
- viability, T/C [49]: 118%
- viability, T/C [50]: 1.51%
- viability, T/C (second compound 1 µM, first compound 0.949 µM): 0.68%
- viability, T/C (second compound 1 µM, first compound 3 µM): 1.06%

Structure (SMILES): Cn1nccc1Nc1nccc(-c2ccn(C(CO)c3ccc(Cl)c(F)c3)c(=O)c2)n1 (stereo not given) + CCN1CCN(Cc2ccc(Nc3ncc(F)c(-c4cc(F)c5nc(C)n(C(C)C)c5c4)n3)nc2)CC1
- pIC50 (second compound 0.01 µM): 6.11
- pIC50 (second compound 0.0316 µM): 6.09
- pIC50 (second compound 0.1 µM): 6.03
- pIC50 (second compound 0.316 µM): 5.94
- pIC50 (second compound 1 µM): 5.53
- viability, T/C [1]: 117%
- viability, T/C [2]: 112%
- viability, T/C [3]: 79.5%
- viability, T/C [4]: 41.6%
- viability, T/C [5]: 24.5%
- viability, T/C [6]: 18.5%
- viability, T/C [7]: 132%
- viability, T/C [8]: 122%
- viability, T/C [9]: 80.6%
- viability, T/C [10]: 43.2%
- viability, T/C [11]: 29.2%
- viability, T/C [12]: 19.7%
- viability, T/C [13]: 138%
- viability, T/C [14]: 113%
- viability, T/C [15]: 78.5%
- viability, T/C [16]: 47.4%
- viability, T/C [17]: 31.2%
- viability, T/C [18]: 20.9%
- viability, T/C [19]: 144%
- viability, T/C [20]: 122%
- viability, T/C [21]: 79.3%
- viability, T/C [22]: 52.2%
- viability, T/C [23]: 38.8%
- viability, T/C [24]: 26.5%
- viability, T/C [25]: 161%
- viability, T/C [26]: 129%
- viability, T/C [27]: 87.5%
- viability, T/C [28]: 61.5%
- viability, T/C [29]: 46.5%
- viability, T/C [30]: 32.7%
